Assay results taken from paper PMC10167348, “Structural mechanisms of TRPM7 activation and inhibition” (Nature Communications, 2023).
Several values for one entry are separate records, joined by “and”; a condition that tells them apart may be missing. Equal entries are not always repeated.

Tests used:
Test in all cases: Aequorin-based Ca2+ influx assay, activation by naltriben
Assay type in all cases: cell-based
TRPM7 WT = target: T1, TRPM7 WT (Mus musculus, UniProt Q923J1); settings: for TRPM7 activation, fold: replicate values
T1 construct: expressed in transfected cells; host or cells: HEK 293T
Procedure: (§1) Measurements of [Ca^2+]i were performed as reported previously with several modifications[2],[52],[54]. HEK 293T cells (mycoplasma test negative, ATCC #CRL3216) were maintained at 37 °C and 5% CO2 in DMEM supplemented with 10% fetal calf serum, 100 µg/ml streptomycin and 100 U/ml penicillin (all from Thermo Fisher Scientific). Cells cultured in six-well plates (~60% confluence) were transfected with 2 µg/dish Trpm7 plasmid DNA and 0.1 µg/dish pG5A plasmid DNA encoding eGFP fused to Aequorea victoria aequorin, using Lipofectamine 2000 (Thermo Fisher Scientific). Twenty-four hours after transfection, the cells were washed with Mg^2+-free HEPES-buffered saline (Mg^2+-free HBS) containing 140 mM NaCl, 6 mM KCl, 0.5 mM CaCl2, 10 mM HEPES (pH 7.4) and 5 mM glucose, and mechanically resuspended in the Mg^2+-free HBS. For reconstitution of aequorin, cell suspensions were incubated with 5 µM coelenterazine (Biaffin GmbH) in the Mg^2+-free HBS for 30 min at room temperature. Cells were washed twice by centrifugation at 600 rpm for 5 min (Heraeus Pico 17 microcentrifuge, Thermo Fisher Scientific), resuspended in the Mg^2+-free HBS and aliquoted into 96-well plates (1 × 10^5 cells per well). Luminescence was detected at room temperature using a FLUOstar OPTIMA microplate reader (BMG LABTECH GmbH). To monitor the NS8593- and VER155008-induced inhibition of TRPM7-mediated Ca^2+ influx, the extracellular concentration of Ca^2+ was increased to 5 mM by injecting the CaCl2-containing Mg^2+-free HBS in the absence or presence of the inhibitors. […] To study activation by naltriben, TRPM7-transfected cells were exposed to Mg^2+-free HBS containing different concentrations of the agonist. The experiments were terminated by lysing cells with 0.1% (v/v) Triton X-100 in the Mg^2+-free HBS to record the total bioluminescence. The bioluminescence rates (counts/s) were analyzed at 1-s intervals and calibrated as [Ca^2+]i values using the following equation:1 p[Ca^2+]i=0.332588(−log(k))+5.5593 where k represents the rate of aequorin consumption, i.e., counts/s divided by the total number of counts.
(§2) To determine the IC50 values for NS8593 and VER155008 (EC50 for naltriben), the data were fitted with the following logistic equation:2 Ec=Emin+Emax+Emin/1+c^h/IC50^h where E(c) is the functional effect at the concentration c of the compound, Emin is the minimal effect, Emax is the maximal effect, IC50 (EC50) is the concentration of the compound that produces the half-maximal effect, and h is the Hill coefficient. Fitting of dose-response curves was performed using GraphPad Prism 8.4.0. Data are presented as the mean ± SEM.

TRPM7-D670A = target: T2, TRPM7-D670A (Mus musculus, UniProt Q923J1, D670A); settings: for TRPM7 activation, fold: replicate values
T2 construct: expressed in transfected cells; host or cells: HEK 293T
Procedure: as §1, §2

TRPM7-S744A = target: T3, TRPM7-S744A (Mus musculus, UniProt Q923J1, S744A)
T3 construct: expressed in transfected cells; host or cells: HEK 293T
Procedure: as §1, §2

T1 sequence (Q923J1 whole entry): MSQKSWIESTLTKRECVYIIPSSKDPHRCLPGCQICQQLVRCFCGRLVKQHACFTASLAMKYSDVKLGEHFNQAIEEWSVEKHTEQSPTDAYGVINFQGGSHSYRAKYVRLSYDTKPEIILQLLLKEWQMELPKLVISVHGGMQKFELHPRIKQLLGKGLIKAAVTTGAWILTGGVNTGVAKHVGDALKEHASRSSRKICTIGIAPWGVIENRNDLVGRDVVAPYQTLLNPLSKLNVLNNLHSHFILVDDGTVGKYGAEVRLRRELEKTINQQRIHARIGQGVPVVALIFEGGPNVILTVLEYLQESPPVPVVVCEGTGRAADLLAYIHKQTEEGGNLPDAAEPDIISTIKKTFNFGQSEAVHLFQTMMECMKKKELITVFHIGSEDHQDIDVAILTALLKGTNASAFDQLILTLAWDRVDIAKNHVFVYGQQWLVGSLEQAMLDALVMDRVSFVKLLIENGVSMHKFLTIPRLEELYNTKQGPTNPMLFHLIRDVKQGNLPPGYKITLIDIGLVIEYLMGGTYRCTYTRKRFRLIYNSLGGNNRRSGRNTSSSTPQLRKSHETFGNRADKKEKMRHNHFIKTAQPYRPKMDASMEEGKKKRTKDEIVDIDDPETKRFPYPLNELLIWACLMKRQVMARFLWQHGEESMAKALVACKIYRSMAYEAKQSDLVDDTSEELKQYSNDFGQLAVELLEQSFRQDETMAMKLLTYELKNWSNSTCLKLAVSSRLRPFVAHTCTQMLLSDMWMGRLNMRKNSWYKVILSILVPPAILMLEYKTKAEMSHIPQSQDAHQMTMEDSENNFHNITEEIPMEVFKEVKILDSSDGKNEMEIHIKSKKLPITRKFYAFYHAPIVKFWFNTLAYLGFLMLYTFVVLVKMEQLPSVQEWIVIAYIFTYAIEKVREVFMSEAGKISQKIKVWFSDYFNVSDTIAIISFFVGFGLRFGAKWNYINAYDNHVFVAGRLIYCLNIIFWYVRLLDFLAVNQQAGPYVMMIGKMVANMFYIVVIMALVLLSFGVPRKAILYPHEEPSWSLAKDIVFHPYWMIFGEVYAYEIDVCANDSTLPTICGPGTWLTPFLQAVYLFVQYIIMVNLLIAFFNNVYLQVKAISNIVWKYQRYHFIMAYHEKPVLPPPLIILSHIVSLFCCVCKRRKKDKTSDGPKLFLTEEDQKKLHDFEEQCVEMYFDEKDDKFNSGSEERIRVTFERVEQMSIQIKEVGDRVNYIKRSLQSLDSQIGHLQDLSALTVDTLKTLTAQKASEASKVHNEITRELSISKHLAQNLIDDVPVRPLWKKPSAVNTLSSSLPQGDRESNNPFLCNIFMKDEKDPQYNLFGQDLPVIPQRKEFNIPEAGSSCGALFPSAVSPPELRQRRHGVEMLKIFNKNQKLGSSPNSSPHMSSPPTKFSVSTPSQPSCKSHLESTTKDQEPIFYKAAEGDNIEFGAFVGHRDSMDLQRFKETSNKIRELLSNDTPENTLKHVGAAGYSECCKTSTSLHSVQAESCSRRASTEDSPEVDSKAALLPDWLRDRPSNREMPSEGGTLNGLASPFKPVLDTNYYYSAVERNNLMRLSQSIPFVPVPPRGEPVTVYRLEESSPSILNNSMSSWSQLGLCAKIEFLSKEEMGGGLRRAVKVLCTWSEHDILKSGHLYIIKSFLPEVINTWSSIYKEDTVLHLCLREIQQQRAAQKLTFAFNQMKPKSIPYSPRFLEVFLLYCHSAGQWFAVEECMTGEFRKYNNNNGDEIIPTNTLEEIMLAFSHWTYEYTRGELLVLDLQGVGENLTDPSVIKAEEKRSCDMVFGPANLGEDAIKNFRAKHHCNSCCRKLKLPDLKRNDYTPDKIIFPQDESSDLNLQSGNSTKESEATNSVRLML
T2 sequence (Q923J1 whole entry D670A): as the sequence (Q923J1 whole entry) above, with D670A counted along it
T3 sequence (Q923J1 whole entry S744A): as the sequence (Q923J1 whole entry) above, with S744A counted along it

Q: `Oc1ccc2c3c1O[C@H]1c4oc5ccccc5c4C[C@@]4(O)[C@@H](C2)N(CC2CC2)CC[C@]314` [Naltriben, naltriben] was tested. Which EC50 (TRPM7 WT) did it give?
A: The EC50 was 65.8 ± 12.4 µM.

Q: What about the “TRPM7 activation, fold” value (TRPM7 WT; WT, [Naltriben] 100 µM) of the same compound?
A: Its value is 3.40 fold and 2.89 fold and 2.30 fold and 2.40 fold and 3.03 fold and 3.14 fold.

Q: And the “TRPM7 activation, fold” value (TRPM7 WT; WT, [Naltriben] 200 µM)?
A: Its value is 4.23 fold and 3.70 fold and 3.66 fold and 2.99 fold and 3.63 fold and 3.89 fold.

Q: What about the “TRPM7 activation, fold” value (TRPM7 WT; WT, [Naltriben] 300 µM) of the same compound?
A: The value was 4.35 fold and 3.85 fold and 3.80 fold and 3.47 fold and 3.56 fold and 4.23 fold.

Q: And the “TRPM7 activation, fold” value (TRPM7 WT; WT, [Naltriben] 400 µM)?
A: Its value is 4.51 fold and 3.90 fold and 3.86 fold and 3.52 fold and 3.70 fold and 4.17 fold.

Q: What about the “TRPM7 activation, fold” value (TRPM7 WT; WT, [Naltriben] 500 µM) of the same compound?
A: Its value is 4.41 fold and 4.17 fold and 4.05 fold and 3.42 fold and 4.20 fold and 4.10 fold.

Q: And the Hill coefficient (TRPM7 WT; WT, agonist, mean ± SEM)?
A: Its Hill coefficient is 1.23 ± 0.25.

Q: And the EC50 (TRPM7-D670A)?
A: The EC50 was 117 ± 32.4 µM.

Q: And the “TRPM7 activation, fold” value (TRPM7-D670A; D670A, [Naltriben] 10 µM)?
A: The value was 1.01 fold and 1.02 fold and 1.12 fold.

Q: What about the “TRPM7 activation, fold” value (TRPM7-D670A; D670A, [Naltriben] 20 µM) of the same compound?
A: The value was 1.24 fold and 1.22 fold and 1.21 fold.

Q: What about the “TRPM7 activation, fold” value (TRPM7-D670A; D670A, [Naltriben] 30 µM) of the same compound?
A: The value was 1.55 fold and 1.37 fold (2×).

Q: And the “TRPM7 activation, fold” value (TRPM7-D670A; D670A, [Naltriben] 40 µM)?
A: Its value is 1.67 fold and 1.48 fold and 1.56 fold.

Q: What about the “TRPM7 activation, fold” value (TRPM7-D670A; D670A, [Naltriben] 50 µM) of the same compound?
A: Its value is 2.45 fold and 1.56 fold and 1.72 fold.

Q: And the “TRPM7 activation, fold” value (TRPM7-D670A; D670A, [Naltriben] 100 µM)?
A: The value was 2.45 fold and 2.03 fold and 2.05 fold.

Q: And the “TRPM7 activation, fold” value (TRPM7-D670A; D670A, [Naltriben] 200 µM)?
A: Its value is 3.19 fold and 2.69 fold and 2.68 fold.

Q: And the “TRPM7 activation, fold” value (TRPM7-D670A; D670A, [Naltriben] 300 µM)?
A: The value was 3.34 fold and 3.00 fold and 2.98 fold.

Q: What about the “TRPM7 activation, fold” value (TRPM7-D670A; D670A, [Naltriben] 400 µM) of the same compound?
A: Its value is 3.55 fold and 3.27 fold and 3.16 fold.

Q: And the “TRPM7 activation, fold” value (TRPM7-D670A; D670A, [Naltriben] 500 µM)?
A: Its value is 3.71 fold and 3.18 fold and 3.31 fold.

Q: What about the Hill coefficient (TRPM7-D670A; D670A, agonist, mean ± SEM) of the same compound?
A: The Hill coefficient was 1.17 ± 0.24.

Q: And the EC50 (TRPM7-S744A)?
A: Its EC50 is 71.8 ± 9.7 µM.

Q: What about the Hill coefficient (TRPM7-S744A; S744A, agonist, mean ± SEM) of the same compound?
A: Its Hill coefficient is 1.48 ± 0.25.
